Reference: patent publication US20130324503A1, “Method of identifying and treating a person having a predisposition to or afflicted with Parkinson disease” (Health Research Inc., priority 2010, published 2013)
Like-named read-outs stand apart in the source and are kept apart here.

What was measured:
[1] = test system: D. melanogaster w^1118 females
Experimental: (§1) All experiments were conducted with D. melanogaster w^1118 females (Bloomington Drosophila Stock Center) kept at consistent conditions at 25° C., 55% humidity, and ambient light. […] Flies were transferred to new vials every other day. […] These solutions were prepared fresh before each batch of media preparation and were added to warmed, liquefied standard fly food (prepared with agar, cornmeal, sucrose and yeast) and mixed thoroughly prior to pouring into vials. Food was prepared fresh at least monthly.
Flies were followed according to the same protocol, counting dead flies daily until all were dead. Survival data were plotted using Kaplan Meier survival analysis^17, mean and median survival times were calculated, and the differences between the survival curves were tested using log rank statistics in SPSS.

[2] = test system: D. melanogaster w^1118 females; conditions: in vivo
Experimental: as §1

[3] = in vivo; cited from earlier work
[4] = test system: CG14691; assay type: in vivo, D. melanogaster; conditions: 5 mM paraquat for six days, compared to untreated flies
Experimental: as §1

[5] = 5 mM paraquat, nicotine 0 mg/ml

SMILES	Nicotine restored survival of paraquat-treated flies ([1]; in vivo) [%]	effect on survival ([1]; in vivo)	improvement of survival of paraquat-treated flies ([1]; in vivo)	effect on survival [2]	Oral bioavailability [3]	rise in CG14691 expression [4] [%]	shortening of lifespan ([1]; 5 mM paraquat vs untreated flies) [%]	Mean survival Days ± SE [1, 5] [days]	Median survival Days ± SE [1, 5] [days]	Reduction of median survival by paraquat ([1]; in vivo)
CN1CCC[C@H]1c1cccnc1 [nicotine, 1-methyl-2-(3-pyridyl)pyrrolidone]	≤ 25	beneficial effect	up to 25%	did not have a notable effect on survival	about 30%	–	–	–	–	–
C[n+]1ccc(-c2cc[n+](C)cc2)cc1 [paraquat, Methyl viologen dichloride hydrate]	–	–	–	–	–	8	63	14.0 ± 0.4	16 ± 0.5	Paraquat reduced median survival by 63%
